Results as given in EP1228063B1, “SUBSTITUTED PYRIDINES AND PYRIDAZINES WITH ANGIOGENESIS INHIBITING ACTIVITY” (BAYER CORPORATION, priority 1999, dated 2001).

molecular target: T1, KDR kinase domain (Homo sapiens, UniProt P35968); assay: KDR Assay (ELISA of poly(Glu4;Tyr1) phosphorylation); assay type: biochemical; settings: 3.3 µM ATP, 60 minutes at room temperature
T1 construct: The cytosolic kinase domain of KDR kinase was expressed as a 6His fusion protein in Sf9 insect cells; 6His; made in house; host or cells: Sf9 insect cells
Method: The cytosolic kinase domain of KDR kinase was expressed as a 6His fusion protein in Sf9 insect cells. The KDR kinase domain fusion protein was purified over a Ni++ chelating column. Ninety-six well ELISA plates were coated with 5 µg poly(Glu4;Tyr1) (Sigma Chemical Co., St Louis, MO) in 100 µl HEPES buffer (20 mM HEPES, pH 7.5, 150 mM NaCl, 0.02% Thimerosal) at 4° overnight. Before use, the plate was washed with HEPES, NaCl buffer and the plates were blocked with 1% BSA, 0.1% Tween 20 in HEPES, NaCl buffer.
Test compounds were serially diluted in 100% DMSO from 4 mM to 0.12 µM in half-log dilutions. These dilutions were further diluted twenty fold in H2O to obtain compound solutions in 5% DMSO. Following loading of the assay plate with 85 µl of assay buffer (20 mM HEPES, pH 7.5, 100 mM KCI, 10 mM MgCl2, 3 mM MnCl2, 0.05% glycerol, 0.005% Triton X-100, 1 mM -mercaptoethanol, with or without 3.3 µM ATP), 5 µl of the diluted compounds were added to a final assay volume of 100 µl. Final concentrations were between 10 µM, and 0.3 nM in 0.25% DMSO. The assay was initiated by the addition of 10µl (30 ng) of KDR kinase domain.
The assay was incubated with test compound or vehicle alone with gentle agitation at room temperature for 60 minutes. The wells were washed and phosphotyrosines (PY) were probed with an anti-phosphotyrosine (PY), mAb clone 4G10 (Upstate Biotechnology, Lake Placid, NY). PY/anti-PY complexes were detected with an anti-mouse IgG/HRP conjugate (Amersham International plc, Buckinghamshire, England). Phosphotyrosine was quantitated by incubating with 100 µl 3, 3', 5, 5' tetramethylbenzidine solution (Kirkegaard and Perry, TMB Microwell 1 Component peroxidase substrate). Color development was arrested by the addition of 100 µl 1% HCl-based stop solution (Kirkegaard and Perry, TMB I Component Stop Solution).
Optical densities were determined spectrophotometrically at 450 nm in a 96-well plate reader, SpectraMax 250 (Molecular Devices). Background (no ATP in assay) OD values were subtracted from all ODs and the percent inhibition was calculated according to the equation: % Inhibition = ((OD(vehicle control)-OD(with compound)) × 100)/(OD(vehicle control)-OD(no ATP added)) [formula]

T1 sequence (P35968 834-1162 limits assumed): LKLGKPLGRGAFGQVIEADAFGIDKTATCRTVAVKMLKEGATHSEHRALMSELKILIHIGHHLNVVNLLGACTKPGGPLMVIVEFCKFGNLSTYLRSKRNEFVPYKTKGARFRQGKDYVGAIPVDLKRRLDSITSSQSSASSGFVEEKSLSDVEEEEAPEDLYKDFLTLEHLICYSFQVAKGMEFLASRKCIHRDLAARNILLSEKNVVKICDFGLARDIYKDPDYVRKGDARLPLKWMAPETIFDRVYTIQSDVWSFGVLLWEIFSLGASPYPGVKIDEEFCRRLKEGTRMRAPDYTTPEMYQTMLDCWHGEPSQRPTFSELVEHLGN

| IC50 [nM] | Structure (SMILES) |
| --- | --- |
| ≤ 100 | c1nc2ccc(Nc3nnc(Nc4ccc5c(c4)CCC5)c4ccsc34)cc2s1 [Example 18, 4-(indan-5-ylamino)-7-(benzothiazol-6-ylamino)thieno-[2,3-d]pyridazine] |
| 100 to 1000 | c1cc2c(Nc3ccc4[nH]ncc4c3)nnc(Nc3ccc4[nH]ncc4c3)c2s1 [Example 27] |
| 100 to 1000 | c1cc2c(Nc3ccc4ncsc4c3)nnc(Nc3ccc4ncsc4c3)c2o1 [Example 28] |
| 100 to 1000 | Clc1ccc(Nc2nnc(Nc3ccc4ncsc4c3)c3occc23)cc1 [Example 48] |
| 100 to 1000 | Cc1ccc(Nc2nnc(Nc3ccc4ncsc4c3)c3sccc23)cc1F [Example 79] |
| ≤ 100 | c1ccc2c(Nc3ccc4ncsc4c3)nnc(Nc3ccc4ncsc4c3)c2c1 [Example 93] |
| 100 to 1000 | c1ccc2c(Nc3ccc4ncsc4c3)nnc(Nc3ccc(N4CCCCC4)cc3)c2c1 [Example 99] |
| 100 to 1000 | CCN(c1ccc(Nc2nnc(Nc3ccc4ncsc4c3)c3ccccc23)cc1)C(C)C [Example 100] |
| ≤ 100 | Cc1ccc(Nc2nnc(Nc3ccc4ncsc4c3)c3ccccc23)cc1F [Example 104] |

The next lines start with the compound.

| Structure (SMILES) | IC50 [nM] |
| --- | --- |
| c1ccc2c(Nc3ccc4ncsc4c3)ncc(Sc3ccncc3)c2c1 [Example 3, 1-(benzothiazol-6-ylamino)-4-(4-pyridylthio)isoquinolin] | 100 to 1000 |
| c1ccc2c(Nc3ccc4ncsc4c3)ncc(Cc3ccncc3)c2c1 [Example 5, 1-(benzothiazol-6-ylamino)-4-(4-pyridylmethyl)-isoquinoline] | 100 to 1000 |
| COc1ccc(Nc2nnc(OCc3ccncc3)c3occc23)cc1 [Example 21, 4-(4-methoxyphenylamino)-7-(4-pyridylmethoxy)furo-[2,3-d]pyridazine] | 100 to 1000 |
| CNC(=O)c1cc(COc2nnc(Nc3cccc(Cl)c3)c3ccoc23)ccn1 [Example 35] | 100 to 1000 |
| CNC(=O)c1cc(COc2nnc(Nc3ccc(F)c(Cl)c3)c3ccoc23)ccn1 [Example 36] | 100 to 1000 |
| CNC(=O)c1cc(COc2nnc(Nc3ccc(N(C)C(C)=O)cc3)c3ccoc23)ccn1 [Example 45] | 100 to 1000 |
| CNC(=O)c1cc(COc2nnc(Nc3ccc(N4CCOCC4)cc3)c3ccoc23)ccn1 [Example 46] | 100 to 1000 |
| CNC(=O)c1cc(COc2nnc(Nc3ccccc3OC)c3ccoc23)ccn1 [Example 50] | 100 to 1000 |
| CNC(=O)c1cc(COc2nnc(Nc3ccc4[nH]ncc4c3)c3ccoc23)ccn1 [Example 55] | 100 to 1000 |
| Oc1ccc(Nc2nnc(OCc3ccncc3)c3occc23)cc1 [Example 58] | 100 to 1000 |
| O=C(c1cc(COc2nnc(Nc3ccc(Cl)cc3)c3ccoc23)ccn1)N1CCOCC1 [Example 61] | 100 to 1000 |
| OCc1cc(COc2nnc(Nc3ccc(Cl)cc3)c3ccoc23)ccn1 [Example 64] | 100 to 1000 |
| CNC(=O)c1cc(COc2nnc(Nc3ccc(F)cc3)c3ccsc23)ccn1 [Example 67] | 100 to 1000 |
| CN(C)CCNC(=O)c1cc(COc2nnc(Nc3ccc(Cl)cc3)c3ccoc23)ccn1 [Example 82A] | 100 to 1000 |
| Clc1ccc(Nc2nnc(Nc3ccc4nc[nH]c4c3)c3ccccc23)cc1 [Example 95] | 100 to 1000 |

molecular target: T2, NIH3T3 cells expressing the full length KDR receptor (Homo sapiens, UniProt P35968); assay: Cell mechanistic assay - Inhibition of 3T3 KDR phosphorylation; assay type: cell-based; settings: VEGF (30 ng / ml) stimulated KDR phosphorylation in NIH3T3 cells, 30 minutes preincubation
T2 construct: NIH3T3 cells expressing the full length KDR receptor; expressed in transfected cells; host or cells: NIH3T3 cells (G418 selection)
Method: NIH3T3 cells expressing the full length KDR receptor were grown in DMEM (Life Technologies, Inc., Grand Island, NY) supplemented with 10% newborn calf serum, low glucose, 25 mM /L sodium pyruvate, pyridoxine hydrochloride and 0.2 mg/ ml of G418 (Life Technologies Inc., Grand Island, NY). The cells were maintained in collagen I-coated T75 flasks (Becton Dickinson Labware, Bedford, MA) in a humidified 5% CO2 atmosphere at 37°C.
Fifteen thousand cells were plated into each well of a collagen 1-coated 96-well plate in the DMEM growth medium. Six hours later, the cells were washed and the medium was replaced with DMEM without serum. After overnight culture to quiesce the cells, the medium was replaced by Dulbecco's phosphate-buffered saline (Life Technologies Inc., Grand Island, NY) with 0.1 % bovine albumin (Sigma Chemical Co., St Louis, MO). After adding various concentrations (0-300 nM) of test compounds to the cells in 1% final concentration of DMSO, the cells were incubated at room temperature for 30 minutes. The cells were then treated with VEGF (30 ng / ml) for 10 minutes at room temperature. Following VEGF stimulation, the buffer was removed and the cells were lysed by addition of 150 µl of extraction buffer (50 mM Tris, pH 7.8, supplemented with 10% glycerol, 50 mM BGP, 2 mM EDTA, 10 mM NaF, 0.5 mM NaVO4, and 0.3% TX-100) at 4°C for 30 minutes.
To assess receptor phosphorylation, 100 microliters of each cell lysate was added to the wells of an ELISA plate precoated with 300 ng of antibody C20 (Santa Cruz Biotechnology, Inc., Santa Cruz , CA). Following a 60-minute incubation, the plate was washed and bound KDR was probed for phosphotyrosine using an anti-phosphotyrosine mAb clone 4G10 (Upstate Biotechnology, Lake Placid, NY). The plate was washed and wells were incubated with anti-mouse IgG/HRP conjugate (Amersham International plc, Buckinghamshire, England) for 60 minutes. Wells were washed and phosphotyrosine was quantitated by addition of 100 µl per well of 3,3',5,5' tetramethylbenzidine (Kirkegaard and Perry, TMB Microwell 1 Component peroxidase substrate) solution. Color development was arrested by the addition of 100 µl 1% HCl based stop solution (Kirkegaard and Perry, TMB 1 Component Stop Solution).
Optical densities (OD) were determined spectrophotometrically at 450 nm in a 96-well plate reader (SpectraMax 250, Molecular Devices). Background (no VEGF added) OD values were subtracted from all ODs and percent inhibition was calculated according to the equation: % Inhibition = ((OD(VEGF control)-OD(with test compound)) × 100)/(OD(VEGF control)-OD(no VEGF added)) [formula]
IC50s were determined on some of the exemplary materials with a least squares analysis program using compound concentration versus percent inhibition. Compounds that have IC50 ≤ 20 nM in this assay include those of Examples 2, 6, 10, 11, 14, 23, 96, 101, 102, 103, 104, 105. Compounds that have IC50 values between 20 nM and 50 nM include those of examples 1, 4, 8, 9, 12, 13, 17, 24, 93, 98. Compounds that have IC50 values between 50 nM and 400 nM include those of examples 97, 99, and 100.

T2 sequence (P35968 20-1356): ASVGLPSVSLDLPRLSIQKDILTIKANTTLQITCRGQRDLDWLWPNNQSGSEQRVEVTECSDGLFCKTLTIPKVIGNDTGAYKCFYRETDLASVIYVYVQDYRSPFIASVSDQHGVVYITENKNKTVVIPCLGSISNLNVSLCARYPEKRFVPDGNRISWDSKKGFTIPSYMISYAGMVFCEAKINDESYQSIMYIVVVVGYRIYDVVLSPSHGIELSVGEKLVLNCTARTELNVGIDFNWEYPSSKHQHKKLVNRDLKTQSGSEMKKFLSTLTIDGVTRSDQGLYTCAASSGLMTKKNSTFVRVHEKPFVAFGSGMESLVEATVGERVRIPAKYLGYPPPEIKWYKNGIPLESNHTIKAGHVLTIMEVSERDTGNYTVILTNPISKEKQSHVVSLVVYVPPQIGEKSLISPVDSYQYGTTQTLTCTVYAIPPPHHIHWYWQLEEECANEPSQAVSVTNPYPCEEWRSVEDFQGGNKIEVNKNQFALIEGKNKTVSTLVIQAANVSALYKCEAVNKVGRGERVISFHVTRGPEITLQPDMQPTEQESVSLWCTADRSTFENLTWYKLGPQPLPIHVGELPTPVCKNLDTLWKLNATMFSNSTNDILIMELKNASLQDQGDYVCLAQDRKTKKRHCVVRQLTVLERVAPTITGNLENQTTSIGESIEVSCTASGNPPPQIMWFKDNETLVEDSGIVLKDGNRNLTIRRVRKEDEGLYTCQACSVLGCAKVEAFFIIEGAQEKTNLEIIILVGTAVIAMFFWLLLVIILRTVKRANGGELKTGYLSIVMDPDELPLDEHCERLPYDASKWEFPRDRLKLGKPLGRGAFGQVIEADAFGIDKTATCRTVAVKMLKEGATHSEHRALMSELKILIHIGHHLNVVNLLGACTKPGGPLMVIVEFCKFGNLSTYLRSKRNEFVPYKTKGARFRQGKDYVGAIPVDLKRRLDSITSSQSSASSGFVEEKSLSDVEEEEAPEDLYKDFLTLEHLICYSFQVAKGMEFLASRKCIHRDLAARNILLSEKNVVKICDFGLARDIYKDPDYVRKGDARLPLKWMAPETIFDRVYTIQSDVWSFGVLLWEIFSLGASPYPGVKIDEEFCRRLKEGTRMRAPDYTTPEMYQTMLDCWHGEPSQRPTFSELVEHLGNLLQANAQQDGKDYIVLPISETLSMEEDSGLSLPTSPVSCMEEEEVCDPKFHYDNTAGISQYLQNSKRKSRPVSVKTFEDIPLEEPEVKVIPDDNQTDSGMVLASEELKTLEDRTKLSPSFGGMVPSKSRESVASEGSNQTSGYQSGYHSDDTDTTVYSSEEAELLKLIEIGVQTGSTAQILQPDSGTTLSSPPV

| IC50 [nM] | Structure (SMILES) |
| --- | --- |
| 20 to 50 | Clc1ccc(Nc2nnc(Nc3ccc4ncsc4c3)c3sccc23)cc1 [Example 17, 4-(4-chlorophenylamino)-7-(benzothiazol-6-ylamino)thieno[2,3-d]pyridazine] |
| 20 to 50 | c1ccc2c(Nc3ccc4ncsc4c3)nnc(Nc3ccc4ncsc4c3)c2c1 [Example 93] |
| 50 to 400 | Brc1ccc2c(c1)CCN2c1nnc(Nc2ccc3ncsc3c2)c2ccccc12 [Example 97] |
| 20 to 50 | FC1(F)Oc2ccc(Nc3nnc(Nc4ccc5ncsc5c4)c4ccccc34)cc2O1 [Example 98] |
| 50 to 400 | c1ccc2c(Nc3ccc4ncsc4c3)nnc(Nc3ccc(N4CCCCC4)cc3)c2c1 [Example 99] |
| 50 to 400 | CCN(c1ccc(Nc2nnc(Nc3ccc4ncsc4c3)c3ccccc23)cc1)C(C)C [Example 100] |
| ≤ 20 | Cc1ccc(Nc2nnc(Nc3ccc4ncsc4c3)c3ccccc23)cc1F [Example 104] |

Second part, the compound before the results:

| Structure (SMILES) | IC50 [nM] |
| --- | --- |
| Clc1ccc(Nc2ncc(Sc3ccncc3)c3ccccc23)cc1 [Example 1, 1-(4-chlorophenylamino)-4-(4-pyridylthio)isoquinolinc] | 20 to 50 |
| Clc1ccc(Nc2ncc(Cc3ccncc3)c3ccccc23)cc1 [Example 4, 1-(4-chlorophenylamino)-4-(4-pyridylmethyl)isoquinoline] | 20 to 50 |
| NC(=O)c1cc(Cc2cnc(Nc3ccc(Cl)cc3)c3ccccc23)ccn1 [Example 12, 1-(4-chlorophenylamino)-4-(2-aminocarbonyl-4-pyridylmethyl)isoquinolin] | 20 to 50 |
| CNC(=O)c1cc(Cc2cnc(Nc3ccc(Cl)cc3)c3ccccc23)ccn1 [Example 13, 1-(4-chlorophenylamino)-4-(2-methylaminocarbonyl-4-pyridylmethyl)isoquinoline] | 20 to 50 |
